Entries after “also recorded” stand apart in the source; their conditions may differ.
How the values were obtained:
T-cell activation = assay: Activation of NYESO TCR-engineered T cells by NYESO expressing MEL375 cells (IFNG and IL-2 secretion); assay type: cell-based, human; details: pulse-expression 24 hrs prior to T-cell addition
From the text: To determine whether the combined short- and long-term mechanisms of MHC protein expression in response to cytokine signaling is sufficient to prevent T-cell activation, NYESO expressing MEL375 cells were used in an assay with T-cells engineered with the TCR (T Cell Receptor) for the NYESO antigen and measured T-cell activation by secretion of IFNG and IL-2.

Pol-II = assay: CUT&Tag of Pol-II occupancy; assay type: cell-based, human; details: MB135-iDUX4-CTD cells, IFNG ± doxycycline
Procedure: CUT&Tag was performed as previously described (Kaya-Okur et al., 2019) with the following modifications: MB135-iDUX4-CTD myoblasts were plated and allowed to grow to 70-80% confluence. Cells were left untreated, treated with 200 ng/ml IFNG for 16 hr, or pre-treated with 1 μg/mL doxycycline for 4 hr then had IFNG added directly to cell media for an additional 16 hr. Fresh cells were harvested and washed in PBS, crosslinked with 0.1% formaldehyde for 90 seconds, then counted and 1.25e6 cells were aliquoted per reaction tube. Drosophila S2 cells were spiked-in at a genomic ratio of 1:10. Nuclei were prepared from cells in Buffer NE1 (20 mM HEPES-KOH PH7.9, 10 mM KCl, 0.1% Triton X-100, 20% glycerol, 0.5 mM spermidine, Pierce Protease Inhibitors EDTA-free [PIA32955]) on ice for 10 min and then bound to concanavalin A-coated beads for 10 min. […]
CUT&Tag data were aligned to the GRCh38 patch 13 human genome e following the Benchtop CUT&Tag v3 protocol (Kaya-Okur et al., 2019). Subsequent to alignment we calculated 1× genome coverage normalization with read centering and read extension using deepTools' bamCoverage (Ramírez, 2016) then mapped the resulting coverage tracks to regions of interest using bedtools' map function (Aaron R. Quinlan, 2010). […]

STAT1 = assay: Anti-FLAG co-immunoprecipitation and western blot for STAT1; assay type: binding, human; details: anti-FLAG IP from MB135 cells ± IFNG
Procedure: Centrifugation at 2500 rcf at 4° C. for 5 min pelleted the nuclei, supernatant was discarded, and nuclei resuspended in 1 mL IP buffer pH 7.4 (25 mM Tris-HCl pH 7.5, 175 mM NaCl, 1 mM EDTA, 0.2% NP-40, 5% glycerol) and incubated for 1 hour at 4° C. with rotation then spun at 21000 rcf for 10 minutes at 4° C. to pellet insoluble debris. Protein concentration was determined using the Pierce BCA Protein Assay Kit (ThermoFisher, 23225). An equivalent amount of protein per sample was pre-cleared with Dynabeads Protein G (Invitrogen) bound to mouse IgG (Abcam #131368) for 1 hour at 4° C. with rotation. FLAG-tagged constructs were then immunoprecipitated with Dynabeads Protein G beads coupled to mouse anti-FLAG M2 mAb (Sigma F3165) for 3 hours at 4° C. with rotation. Beads were washed 3× with 1 mL IP buffer and eluted by adding 2× NuPage LDS Sample Buffer (Thermo Fisher, diluted from 4× with PBS) to the beads and heating for 10 minutes at 70° C.
Antibodies against STAT1 [EPR4407] (ab109320), pSTAT1 Y701 [M135] (ab29045), pSTAT1 S727 [EPR3146] (ab109461), YBX1 [EP2708Y] (ab76149), PABPC1 (ab21060), hnRNPM [EPR13509 (B)] (ab177957), PRKDC [Y393] (ab32566), and HSP90AB1 [EPR16621] (ab203085) were purchased from Abcam. Antibodies against FLAG tag [M2] (F1804) and [M2] (F3146) were purchased from Sigma Aldrich. Antibodies against DDX3X [D19B4] (8192S), hnRNPK [R332] (4675S), TRIM28 [C42G12] (4124S), PPP2R1A [81G5] (2041S), NCL [D4C70] (14574S), and MYC tag [71D10] (2278S), and IDO1 [D5J4E] (86630S) were purchased from Cell Signaling Technology. Antibodies against hnRNPU (14599-1-AP), CDK4 (11026-1-AP), and HAT1 (11432-1-AP) were purchased from ProteinTech. The antibody against HSPA8 [SR39-04] (PIMA532002) was purchased from ThermoFisher. The antibody against DUX4 (P2G4) was described previously (Geng et al., 2011, Immunodetection of human double homeobox 4. Hybridoma (Larchmt) 30, 125-130). The antibodies Goat anti-Rabbit IgG HRP (ThermoFisher, A27036) and Rat anti-Mouse IgG HRP for IP (Abcam, ab131368) were used as secondary antibodies against rabbit and mouse primary antibodies for western blotting.

Substance	T-cell activation (IFNG and IL-2 secretion) (T-cell activation)	Pol-II recruitment to ISGs (Pol-II)	co-immunoprecipitation with STAT1 / phosphorylated STAT1 (STAT1; listed as DUX4-CTD)	co-immunoprecipitation with STAT1 / phosphorylated STAT1 (STAT1; listed as DUX4 CTD)	co-immunoprecipitation with STAT1 / phosphorylated STAT1 (STAT1; listed as DUX4 longCTD)
DUX4: human DUX4 protein SEQ ID NO:3 expressed from doxycycline inducible codon altered transgene SEQ ID NO:2	completely blocks the T-cell activation by the NYESO expressing MEL375 cells				
longCTD: 3×FLAG tag and nls in frame with carboxyterminal 271 amino acids of DUX4 (aa154-424), SEQ ID NOS: 8-9		blocked Pol-II recruitment to ISGs without affecting occupancy at other genes; also recorded: blocks Pol-II recruitment	phosphorylation at Y701 is necessary for enhanced interaction; also recorded: preferentially interacts with pSTAT1-Y701	showed stronger interaction with phosphorylated STAT1	both show binding to STAT1; also recorded: STAT1 is associated
